# Patent US7998940B2, “Aptamers to von Willebrand factor and their use as thrombotic disease therapeutics” (Archemix Corp., priority 2004, dated 2011)
# Values joined by “and” are separate entries in the source; they are usually repeats but may differ in a detail not shown here. Equal entries are not always repeated. “Also recorded” adds a separate entry of the source. [invdT] = inverted (3'-3') thymidine; d = 2'-deoxy (DNA); m = 2'-O-methyl
# How the values were obtained:
# [1] = pharmacokinetics after 3 mg/kg IV in cynomolgus macaques (Oligreen, HPLC); type: in vivo
# Procedure: ARC1368 (SEQ ID NO 291), 1779 (SEQ ID NO 320) and 1780 (SEQ ID NO 321) (as described in Example 2 above) were injected intravenously into cynomolgus macaques (n=3/group) at a dosage of 3 mg/kg which was expected to yield an instantaneous plasma concentration of 3 uM, approximately 30-fold higher than the putative effective dose. Subsequently, citrated blood samples were collected at regular intervals and processed for plasma.
# Subsequently, plasma aptamer concentrations were determined using the Oligreen assay (Gray et al., Antisense and Nucleic Acid Drug Development 7 (3):133-140 (1997). The data were subsequently analyzed using the program WinNonlin to yield the pharmacokinetic parameters listed in Tables 29 to 31 below.
# Following the Oligreen assay analysis, plasma aptamer concentrations were determined for the animals dosed with ARC1779 (SEQ ID NO 320) using a validated HPLC-based assay. The HPLC data were analyzed via noncompartmental and 2-compartment analysis using the program WinNonlin.
# [2] = cutaneous bleeding time (CBT) in cynomolgus macaques; type: in vivo; conditions: in words
# Procedure: Following IV administration, blood was collected percutaneously at various time points post-dose for PK and PD analysis. PD effect of ARC1779 on platelet function was determined by PFA-100 assays and effect of ARC1779 on bleeding was measured by CBT time. In addition, plasma samples were analyzed by HPLC for quantitation of ARC1779 levels. PK parameter estimates were determined by 2-compartment analysis.
# C. macaques were dosed at 0.5 mg/kg IV bolus with ARC1779 (SEQ ID NO 320). PFA-100 closure time, BIPA and cutaneous bleeding time (“CBT”) were all measured as a function of time throughout the studies. BIPA and PFA-100 closure times were measured as described in previously in Example 3. Cutaneous bleeding times were measured using standard protocols described as follows.
# A blood pressure cuff was applied to the biceps region of the forearm to be tested and inflated to maintain a constant pressure of 40 mmHg. Using a Surgicutt® Automated Incision Device (ITC, Edison, N.J.), a longitudinal incision was made over the lateral aspect of the volar surface of the forearm distal to the antecubital crease. A stopwatch was started at the time of incision. […] Bleeding time is determined to within 30 seconds of the time when blood is no longer wicked onto the paper. […]
# [3] = not given; remark: listed apart in the source
# [4] = tested on: vWF dependent platelet plug formation, cynomolgus whole blood; assay: PFA-100 assay, cynomolgus macaque whole blood; type: cell-based, cynomolgus macaques; conditions: minimum concentration that extends closing time to 300 seconds
# Description: Another assay of this Example, using the PFA-100 instrument, is an agonist independent but vWF dependent assay that uses the PFA-100 instrument (Harrison et al., Clin. Lab. Haem., v24, p 225-32 (2002)). The PFA-100 simulates the formation of a hemostatic plug under conditions of high shear force in vivo by recording the time required for a platelets to aggregate and block the flow of citrated whole blood through a microscopic aperture in a membrane coated with collagen and either epinephrine or ADP. This activity is von Willebrand factor dependent as high MW vWF multimers bind to immobilized collagen on the membrane and then bind to and activate platelets because of the shear force induced by drawing the blood through the microscopic aperture.
# Fresh whole blood was collected from healthy non-steroidal anti-inflammatory drug (NSAID) free cynomolgus macaques. […]
# In order to assay the titration of aptamer in whole blood, the aptamer was added to no-additive vacutainer tubes and diluted to the desired concentrations (ex: 0 nM, 1 nM to 1000 nM) using physiological saline such that the final volume was […]. When the PFA-100 was ready to run the next set of samples, 1940 μl of whole blood was added to the tube containing a concentration of aptamer. […] The time of occlusion of the aperture was measured by the PFA-100, with a maximal time of 300 seconds. […]
# [5] = tested on: ADP induced platelet aggregation; assay: ADP Induced Platelet Aggregation (AIPA) in human PRP; type: cell-based; conditions: in words, 10 micromolar ADP
# Procedure: Another assay of this Example used ADP to induce platelet aggregation.
# AIPA was performed with human PRP exactly as was done for BIPA described above in Example 3C with the exception that instead of adding botrocetin, 10 micromolar ADP (Chronolog, Haverton, Pa.) was added to induce platelet aggregation.
# [6] = 3 mg/kg IV, monkeys, Oligreen assay, noncompartmental, individual animals 2101, 2103, 2104
# [7] = 3 mg/kg IV, monkeys, Oligreen assay, noncompartmental, mean of 3 animals
# [8] = cynomolgus monkey, in vivo, iv, 3 mg/kg
substance,measurement,setting,value
PEG20K-NH2-mGmCmGmUdGdCdAmGmUmGmCmCmUmUmCmGmGmCdCmG-s-TmGdCdGdGTmGmCdCmUdCdCmGmUdCmAmCmGmC-3T [ARC1779],distribution half-life (t1/2α),"[1]; 3 mg/kg IV, HPLC-based assay",1.4 h
same,elimination half-life (t1/2β),"[1]; 3 mg/kg IV, HPLC-based assay",12.9
same,distribution phase α-half-life,"[1]; 3 mg/kg IV, Oligreen assay",~2 h
same,AUClast,[1]; [6],309.245 µg·h/mL and 336.59 µg·h/mL and 235.503 µg·h/mL
same,Cmax,[1]; [6],69.065 µg/mL and 65.717 µg/mL and 70.344 µg/mL
same,MRTlast,[1]; [6],5.27 h and 4.66 h and 2.69 h
same,Tmax,[1]; [6],0.25 hr (2×) and 0.50 hr
same,"AUClast, Mean",[1]; [7],293.779 µg·h/mL
same,"Cmax, Mean",[1]; [7],68.375 µg/mL
same,"MRTlast, Mean",[1]; [7],4.21 h
same,"Tmax, Mean",[1]; [7],0.33 h
same,concentration-time profile,"[1]; in words, 3 mg/kg IV, HPLC method",biphasic
same,pharmacokinetic profile,"[1]; in words, 3 mg/kg IV, mean concentration-time profile, OliGreen assay",mainly monophasic
same,effect on cutaneous bleeding time,"[2]; 0.5 mg/kg single IV bolus, 0.5 mg/kg",minimal effect; also recorded: very little increase
same,cutaneous bleeding time in the electrolytic thrombosis model,"[2]; FIG. 34, various doses and time points","at some doses and/or time points in this animal model prolonged CBT was observed, while at other doses and time points CBT was not prolonged"
"dGdGdCdGTdGdCdAdGTdGdCdCTTdCdGdGdCdCdGTdGdCdGdGTdGdCdCTdCdCdGTdCdAdCdGdCdC-3T (DNA GGCGTGCAGTGCCTTCGGCCGTGCGGTGCCTCCGTCACGCC; DNA, [invdT] at 3' end, backbone and methylation of C not given here) [ARC1172]",T½ Rat plasma,,3 h
same,T½ Human plasma,[3],17 h
"mGmCmGmUdGdCdAmGmUmGmCmCmUmUmCmGmGmCdCmG-s-TmGdCdGdGTmGmCdCmUdCdCmGmUdCmAmCmGmC-3T (GCGUGCAGUGCCUUCGGCCGTGCGGTGCCUCCGUCACGC; sugars from the 5' end mmmmdddmmmmmmmmmmmdmdmddddmmdmddmmdmmmm, [invdT] at 3' end, backbone not given here) [ARC1368]",T½ Rat plasma,,21 h
same,"AUC0-last, Mean",[1]; [8],25224 ng·h/mL
same,"MRTlast, Mean",[1]; [8],4.48 h
same,distribution phase,[1]; [8],rapid distribution phase
same,pharmacokinetic profile,[1]; [8],mainly monophasic
same,~IC95 PFA-100 (nM) with citrated C. macaque whole blood,[4],~100 nM
same,T½ Human plasma,[3],63 h
same,ability to block AIPA,[5],no ability to block AIPA
